{"source": "paper PMC10764104", "about": "“Discovery of Molecular Glue Degraders via Isogenic Morphological Profiling” (ACS Chemical Biology, 2023)", "system": "RKO WT", "test": "Quantitative expression proteomics to identify degradation targets", "type": "cell-based, human", "settings": "10 μM, 16 h, n = 2, and adjusted p < 0.01, over 8000 proteins quantified", "excerpt": "We selected FL2-14 for target elucidation (circled in black in Figure 2E) based on three criteria (Table S4). First, FL2-14 has low cosine similarity with all of the CRBN-dependent controls (i.e., no thick blue edges). […] Third, it has a unique chemical structure, being the only CRBN binder with the tail group modification 14 predicted to have CRBN-dependent bioactivity (Figure 3A). To elucidate the target for FL2-14, we performed quantitative proteomics to evaluate changes in protein abundances upon treatment with FL2-14. […]\nFigure 3 FL2-14 is a selective GSPT2 molecular glue degrader. […] (B) DMSO-normalized quantitative proteomics after 16 h of treatment with FL2-14 (10 μM) in RKO WT (n = 2). […]\nof the sample sizes of (i.e. number of images in) RKO CRBN OE and RKO CRBN KO data. We, thus, normalized the U scores calculated to allow us to compare U scores for different treatments with varying sample sizes: […]\nComparing the treatment‐centric features of compounds predicted to have CRBN‐dependent bioactivity. […] We then retrieve the matrix of Kendall’s τ‐b correlation coefficients calculated per feature for each compound. […]\nWe then visualized the cosine similarities calculated on a network graph with NetworkX (https://networkx.org, version 3.1), using the spring_layout() with seed set to 500 and iterations set to 200. […]", "data": [{"smiles": "CN(Cc1ncc(C2CC2)o1)S(=O)(=O)Oc1ccc(Nc2ccc3c(c2)C(=O)N(C2CCC(=O)NC2=O)C3=O)cc1", "note": "(stereo not shown) [FL2-14]", "values": [{"measurement": "proteins significantly downregulated (quantitative proteomics)", "result": "GSPT2, FAM83F, and ZBTB39"}]}]}
